In the assay the target is T1, F508delCFTR (Homo sapiens, UniProt P13569, DEL508-508).
T1 construct: expressed in transfected cells; host or cells: CFBE41o- (human lung derived epithelial cell line), doxycycline-inducible expression
Put plainly: Cell Surface Expression-Horse Radish Peroxidase (CSE-HRP) assay. It counts as cell-based. As to conditions: CFBE41o-F508delCFTR-HRP cells; for Maximum % activity (with co-corrector): with co-corrector (2 μM); for Maximum % activity (with co-corrector) / Maximum % activity (without co-corrector): normalized to on-plate positive control, highest concentration 20 μM. As to the method: Cell Surface Expression-Horse Radish Peroxidase (CSE-HRP) Assay
A cellular assay for measuring the F508delCFTR cell surface expression after correction with test compounds either without or with a co-corrector (2 μM of 3-[(2R,4R)-4-({[1-(2,2-difluoro-1,3-benzodioxol-5-yl)cyclopropyl]carbonyl}amino)-7-methoxy-3,4-dihydro-2H-chromen-2-yl]benzoic acid), was developed in human lung derived epithelial cell line (CFBE41o-) (Veit G et al, (2012) Mol Biol Cell. 23(21): 4188-4202). The development was achieved by expressing the F508delCFTR mutation along with a horseradish peroxidase (HRP) in the fourth exofacial loop, and then measuring the HRP activity using luminescence readout from these cells, CFBE41o-F508delCFTR-HRP, that were incubated overnight with the test corrector compounds, either without or with the co-corrector. For this primary assay, the CFBE41o-F508delCFTR-HRP cells were plated in 384-well plates (Greiner Bio-one; Cat 781080) at 4,000 cells/well along with 0.5 μg/mL doxycycline to induce the F508delCFTR-HRP expression and further incubated at 37° C., 5% CO2 for 72 hours. The test compounds were then added either without or with a co-corrector at the required concentrations and further incubated for 18-24 hours at 33° C. The highest concentration tested was 20 μM with an 8-point concentration response curve using a 3-fold dilution in both the test compound without or with the co-corrector. Three replicate plates were run to determine one EC50. All plates contained negative controls (dimethyl sulfoxide, DMSO) and positive control (2 μM of 3-[(2R,4R)-4-({[1-(2,2-difluoro-1,3-benzodioxol-5-yl)cyclopropyl]carbonyl}amino)-7-methoxy-3,4-dihydro-2H-chromen-2-yl]benzoic acid) as well as on-plate concentration response of the positive control. Post incubation, the plates were washed 5× times with Dulbecco's phosphate buffered saline (DPBS), followed by the addition of the HRP substrate, luminol (50 μL), and measuring the HRP activity using luminescence readout on EnVision® Multilabel Plate Reader (Perkin Elmer; product number 2104-0010). The raw counts from the experiment were analyzed using Accelrys® Assay Explorer v3.3.
Z′ greater than 0.5 was used as passing quality control criteria for the plates.
The Z′ is defined as: 1−[3*SDPositive Control+3*SDNegative Control/Absolute(MeanPositive Control−MeanNegative Control)] wherein “SD” is standard deviation.
The % activity measured at each of the 8 test concentrations of the test compound added either without or with a co-corrector (2 μM of 3-[(2R,4R)-4-({[1-(2,2-difluoro-1,3-benzodioxol-5-yl)cyclopropyl]carbonyl}amino)-7-methoxy-3,4-dihydro-2H-chromen-2-yl]benzoic acid) was normalized to the on-plate positive control using the following formulae: % activity(Test compound without co-corrector)=[(test compound without co-corrector response−DMSO response)/(positive control response−DMSO response)]*100 % activity(Test compound with co-corrector)=[(test compound with co-corrector response−DMSO response)/(positive control response−DMSO response)]*100
The maximum % activity achieved for the test compound either without or with a co-corrector at any tested concentration is presented in Table 1 along with the respective EC50's calculated using the following general sigmoidal curve with variable Hill slope equation (described as Model 42 in the Accelrys® Assay Explorer v3.3 software): y=(a−d)/(1+(x/c)^b)+d
General sigmoidal curve with concentration, response, top, bottom, EC50 and Hill slope. This model describes a sigmoidal curve with an adjustable baseline, a. The equation can be used to fit curves where response is either increasing or decreasing with respect to the independent variable, “x”. • “x” is a concentration of drug under test. • “y” is the response. • “a” is the maximum response, and “d” is the minimum response • “c” is the inflection point (EC50) for the curve. That is, “y” is halfway between the lower and upper asymptotes when x=c. “b” is the slope-factor or Hill coefficient. […]

Where [1] appears, read: test compound without co-corrector, 18-24 hours at 33° C., read-out: EC50 (without co-corrector).
[2] abbreviates: with co-corrector (2 μM of 3-[(2R,4R)-4-({[1-(2,2-difluoro-1,3-benzodioxol-5-yl)cyclopropyl]carbonyl}amino)-7-methoxy-3,4-dihydro-2H-chromen-2-yl]benzoic acid), read-out: EC50 (with co-corrector).

SMILES strings stand for the structures. Read-outs that look alike come from different tables or passages of the source.

T1 sequence (P13569 with tags, fused parts or gaps DEL508-508): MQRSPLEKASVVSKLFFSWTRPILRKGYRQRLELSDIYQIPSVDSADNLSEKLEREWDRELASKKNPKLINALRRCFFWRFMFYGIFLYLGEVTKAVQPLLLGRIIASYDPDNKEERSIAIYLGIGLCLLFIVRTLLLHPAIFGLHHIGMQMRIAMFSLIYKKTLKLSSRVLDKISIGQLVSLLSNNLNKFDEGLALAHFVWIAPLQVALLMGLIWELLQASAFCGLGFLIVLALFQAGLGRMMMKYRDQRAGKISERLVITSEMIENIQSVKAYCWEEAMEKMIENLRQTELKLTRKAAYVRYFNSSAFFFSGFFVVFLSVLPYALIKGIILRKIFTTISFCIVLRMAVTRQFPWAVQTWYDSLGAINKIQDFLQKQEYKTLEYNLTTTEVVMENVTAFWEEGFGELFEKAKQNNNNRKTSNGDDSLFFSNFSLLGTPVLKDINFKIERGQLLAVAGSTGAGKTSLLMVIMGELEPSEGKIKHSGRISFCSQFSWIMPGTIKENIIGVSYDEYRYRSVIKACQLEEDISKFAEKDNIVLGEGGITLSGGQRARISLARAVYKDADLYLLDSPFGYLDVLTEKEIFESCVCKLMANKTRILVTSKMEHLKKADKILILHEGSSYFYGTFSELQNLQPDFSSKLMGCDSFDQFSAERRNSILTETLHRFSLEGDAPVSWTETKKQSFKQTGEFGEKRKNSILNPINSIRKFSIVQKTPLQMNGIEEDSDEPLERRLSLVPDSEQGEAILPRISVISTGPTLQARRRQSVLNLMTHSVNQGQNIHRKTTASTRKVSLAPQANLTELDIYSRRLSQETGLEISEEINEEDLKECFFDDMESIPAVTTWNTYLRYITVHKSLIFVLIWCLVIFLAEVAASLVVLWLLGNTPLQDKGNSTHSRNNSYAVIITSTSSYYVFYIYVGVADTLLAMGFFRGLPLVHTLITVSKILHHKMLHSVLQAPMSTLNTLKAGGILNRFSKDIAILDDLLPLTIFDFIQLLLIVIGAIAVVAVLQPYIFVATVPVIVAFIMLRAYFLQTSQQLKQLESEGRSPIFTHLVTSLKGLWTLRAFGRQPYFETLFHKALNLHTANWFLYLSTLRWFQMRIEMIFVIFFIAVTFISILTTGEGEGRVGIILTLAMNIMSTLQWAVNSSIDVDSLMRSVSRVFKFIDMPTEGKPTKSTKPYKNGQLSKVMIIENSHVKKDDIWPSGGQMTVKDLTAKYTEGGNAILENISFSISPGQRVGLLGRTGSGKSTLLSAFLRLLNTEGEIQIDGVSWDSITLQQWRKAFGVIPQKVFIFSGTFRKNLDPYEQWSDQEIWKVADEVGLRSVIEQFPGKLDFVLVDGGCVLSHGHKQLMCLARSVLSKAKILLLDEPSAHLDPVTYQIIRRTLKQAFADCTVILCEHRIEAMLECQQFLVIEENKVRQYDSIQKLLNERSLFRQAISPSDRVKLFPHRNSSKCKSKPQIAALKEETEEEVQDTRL

Consider `COc1cc(Cl)ccc1COC1[C@@H](c2ccccc2OC)N(C(=O)C2CCCCC2)[C@@H](C(=O)O)[C@@H]1C(C)(C)C` (mixture of isomers) [Example 14, rac-(2R,3S,5R)-3-tert-butyl-4-[(4-chloro-2-methoxyphenyl)methoxy]-1-(cyclohexanecarbonyl)-5-(2-methoxyphenyl)pyrrolidine-2-carboxylic acid], for which the “Maximum % activity (with co-corrector)” value is on record as “+++ (≥350)”; the “Maximum % activity (without co-corrector)” value is “++ (≥100 and <200)”. The EC50 under setting [1] was 1000 to 10000 nM. The EC50 under setting [2] lay within 1000 to 10000 nM.
On to `COc1ccc(C(F)(F)F)cc1COC1[C@@H](c2cccnc2N(C)C)N(C(=O)C2CCCCC2)[C@@H](C(=O)O)[C@@H]1C(C)(C)C` (mixture of isomers) [Example 15, rac-(2R,3S,5R)-3-tert-butyl-1-(cyclohexanecarbonyl)-5-[2-(dimethylamino)pyridin-3-yl]-4-{[2-methoxy-5-(trifluoromethyl)phenyl]methoxy}pyrrolidine-2-carboxylic acid], for which the “Maximum % activity (with co-corrector)” value is “+++ (≥350)”; the “Maximum % activity (without co-corrector)” value is “++ (≥100 and <200)”. In addition, under setting [1], the EC50 is 1000 to 10000 nM. Besides, under setting [2], the concentration giving a half-maximal response (EC50) is 1000 to 10000 nM.
With `COc1ccc(C(F)(F)F)cc1COC1[C@@H](c2ccccc2)N(C(=O)C2CCCCC2)[C@@H](C(=O)NS(C)(=O)=O)[C@@H]1C(C)(C)C` (mixture of isomers) [Example 16, rac-(2R,3S,5R)-3-tert-butyl-1-(cyclohexanecarbonyl)-N-(methanesulfonyl)-4-{[2-methoxy-5-(trifluoromethyl)phenyl]methoxy}-5-phenylpyrrolidine-2-carboxamide], the “Maximum % activity (with co-corrector)” value was “++ (≥150 and <350)”; the “Maximum % activity (without co-corrector)” value is reported as “+ (<100)”. For the same compound, the EC50 under setting [1] lay within 1000 to 10000 nM. Moreover, the EC50 under setting [2] lay in the range of 1000 to 10000 nM.
For `COc1ccc(Cl)cc1COC1[C@@H](c2ccccc2)N(C(=O)OC(C)C)[C@@H](C(=O)O)[C@@H]1C(C)(C)C` (mixture of isomers) [Example 17, rac-(2R,3S,5R)-3-tert-butyl-4-[(5-chloro-2-methoxyphenyl)methoxy]-5-phenyl-1-{[(propan-2-yl)oxy]carbonyl}pyrrolidine-2-carboxylic acid], the “Maximum % activity (with co-corrector)” value is “+++ (≥350)”; the “Maximum % activity (without co-corrector)” value was “++ (≥100 and <200)”. Under setting [1], the EC50 lay in the range of 1000 to 10000 nM. Under setting [2], the EC50 was in the range of 1000 to 10000 nM.
Regarding `COc1ncc(C(F)(F)F)cc1CO[C@@H]1[C@@H](C(C)(C)C)[C@H](C(=O)O)N(C(=O)C2CCCCC2)[C@@H]1c1ccccc1` (racemic) [Example 20, rac-(2R,3S,4R,5R)-3-tert-butyl-1-(cyclohexanecarbonyl)-4-{[2-methoxy-5-(trifluoromethyl)pyridin-3-yl]methoxy}-5-phenylpyrrolidine-2-carboxylic acid], the “Maximum % activity (with co-corrector)” value is on record as “+++ (≥350)”; the “Maximum % activity (without co-corrector)” value is “++ (≥100 and <200)”. Under setting [1], the EC50 was less than 1000 nM. For the same compound, the EC50 under setting [2] is less than 1000 nM.
Take `COc1cc(C(F)(F)F)ccc1CO[C@@H]1[C@@H](C(C)(C)C)[C@H](C(=O)O)N(C(=O)OC2CCC2)[C@@H]1c1ccccc1` (racemic) [Example 34, rac-(2R,3S,4R,5R)-3-tert-butyl-1-[(cyclobutyloxy)carbonyl]-4-{[2-methoxy-4-(trifluoromethyl)phenyl]methoxy}-5-phenylpyrrolidine-2-carboxylic acid]: the “Maximum % activity (with co-corrector)” value is “+++ (≥350)” and the “Maximum % activity (without co-corrector)” value is given as “+ (<100)”. Moreover, under setting [1], the EC50 was in the range of 1000 to 10000 nM. Besides, the EC50 under setting [2] is 1000 to 10000 nM.
For `COc1ccc(Cl)cc1CO[C@@H]1[C@@H](C(C)(C)C)[C@H](C(=O)O)N(C(=O)OC2CCC2)[C@@H]1c1ccccc1` (racemic) [Example 35, rac-(2R,3S,4R,5R)-3-tert-butyl-4-[(5-chloro-2-methoxyphenyl)methoxy]-1-[(cyclobutyloxy)carbonyl]-5-phenylpyrrolidine-2-carboxylic acid], the “Maximum % activity (with co-corrector)” value is “+++ (≥350)”; the “Maximum % activity (without co-corrector)” value is “++ (≥100 and <200)”. The EC50 under setting [1] fell in the range of 1000 to 10000 nM. For the same compound, under setting [2], the EC50 is 1000 to 10000 nM.
`COc1ccc(C(F)(F)F)cc1CO[C@@H]1[C@@H](C(C)(C)C)[C@H](C(=O)O)N(C(=O)N(C(C)C)C(C)C)[C@@H]1c1ccccc1` (single isomer, unassigned) [Example 8, (2R*,3S*,4R*,5R*)-3-tert-butyl-1-[di(propan-2-yl)carbamoyl]-4-{[2-methoxy-5-(trifluoromethyl)phenyl]methoxy}-5-phenylpyrrolidine-2-carboxylic acid]: the “Maximum % activity (with co-corrector)” value is listed as “+ (<150)” and the “Maximum % activity (without co-corrector)” value is “+ (<100)”. Also, the EC50 under setting [1] is greater than 10000 nM. Under setting [2], the EC50 was greater than 10000 nM.
Turning to `COc1ccc(C(F)(F)F)cc1CO[C@H]1[C@H](C(C)(C)C)[C@@H](C(=O)O)N(C(=O)N(C(C)C)C(C)C)[C@H]1c1ccccc1` (single isomer, unassigned) [Example 9, (2S*,3R*,4S*,5S*)-3-tert-butyl-1-[di(propan-2-yl)carbamoyl]-4-{[2-methoxy-5-(trifluoromethyl)phenyl]methoxy}-5-phenylpyrrolidine-2-carboxylic acid], the “Maximum % activity (with co-corrector)” value is given as “+ (<150)” and the “Maximum % activity (without co-corrector)” value is given as “+ (<100)”. Also, the EC50 under setting [1] was greater than 10000 nM. Further, under setting [2], the EC50 was greater than 10000 nM.
As to `COc1ncc(C(F)(F)F)cc1CO[C@H]1[C@H](C(C)(C)C)[C@@H](C(=O)O)N(C(=O)[C@H]2CCCCO2)[C@H]1c1cccc(C(C)(C)C)c1` (single isomer, unassigned) [Example 157], the “Maximum % activity (with co-corrector)” value was “++ (≥150 and <350)”; the “Maximum % activity (without co-corrector)” value is recorded as “+ (<100)”. In addition, the EC50 under setting [1] was less than 1000 nM. Further, under setting [2], the EC50 is less than 1000 nM.
Take `COc1ncc(C(F)(F)F)cc1CO[C@H]1[C@H](C(C)(C)C)[C@@H](C(=O)O)N(C(=O)[C@@H]2CCCC[C@H]2C(F)(F)F)[C@H]1c1cccnc1OC(C)C` (single isomer, unassigned) [Example 282]: the “Maximum % activity (with co-corrector)” value was “+++ (≥350)” and the “Maximum % activity (without co-corrector)” value is recorded as “+ (<100)”. Moreover, under setting [1], the EC50 was less than 1000 nM. The EC50 under setting [2] was less than 1000 nM.
With `COc1ncc(C(F)(F)F)cc1CO[C@H]1[C@H](C(C)(C)C)[C@@H](C(=O)O)N(C(=O)[C@H]2CCCC[C@@H]2C(F)(F)F)[C@H]1c1cccnc1OC(C)C` (single isomer, unassigned) [Example 283], the “Maximum % activity (with co-corrector)” value was “+++ (≥350)” and the “Maximum % activity (without co-corrector)” value is “+ (<100)”. Moreover, under setting [1], the EC50 is less than 1000 nM. For the same compound, under setting [2], the EC50 lay in the range of 1000 to 10000 nM.

Source of the values: patent US10399940B2, “Substituted pyrrolidines and methods of use” (AbbVie S.à.r.l., priority 2016, dated 2019).
